Data taken from ChEMBL document CHEMBL1125035, “Synthesis and biological activity of novel vitamin D analogues: 24,24-difluoro-25-hydroxy-26,27-dimethylvitamin D3 and 24,24-difluoro-1 alpha,25-dihydroxy-26,27-dimethylvitamin D3” (1990).

Legend:
[1] = Relative potency against calcium binding protein induction in duodenal organ culture at a concentration of 0.01 nM compared to 1,25-(OH)2-D3 in Male Albino rats; assay type: functional
Rattus norvegicus [2] = species: Rattus norvegicus; test: Calcium binding protein induction in duodenal organ culture at a concentration of 0.1 nM in Male Albino rats; assay type: functional
Rattus norvegicus [3] = species: Rattus norvegicus; test: Calcium binding protein induction in duodenal organ culture at a concentration of 0.01 nM in Male Albino rats; assay type: functional
Rattus norvegicus [4] = species: Rattus norvegicus; test: Calcium binding protein induction in duodenal organ culture at a concentration of 1 nM in Male Albino rats; assay type: functional
Rattus norvegicus [5] = species: Rattus norvegicus; test: Calcium binding protein induction in duodenal organ culture at a concentration of 10 nM in Male Albino rats; assay type: functional
Gallus gallus = species: Gallus gallus; test: Bind to chick intestinal Vitamin D3 receptor for 1,25-(OH)2-D3
[6] = target: T1, Vitamin D-binding protein (Rattus norvegicus) (UniProt P04276); test: Displacement of [3H]25-(OH)-D3 from rat plasma Vitamin D binding protein; assay type: cell-free
T1 sequence (whole entry): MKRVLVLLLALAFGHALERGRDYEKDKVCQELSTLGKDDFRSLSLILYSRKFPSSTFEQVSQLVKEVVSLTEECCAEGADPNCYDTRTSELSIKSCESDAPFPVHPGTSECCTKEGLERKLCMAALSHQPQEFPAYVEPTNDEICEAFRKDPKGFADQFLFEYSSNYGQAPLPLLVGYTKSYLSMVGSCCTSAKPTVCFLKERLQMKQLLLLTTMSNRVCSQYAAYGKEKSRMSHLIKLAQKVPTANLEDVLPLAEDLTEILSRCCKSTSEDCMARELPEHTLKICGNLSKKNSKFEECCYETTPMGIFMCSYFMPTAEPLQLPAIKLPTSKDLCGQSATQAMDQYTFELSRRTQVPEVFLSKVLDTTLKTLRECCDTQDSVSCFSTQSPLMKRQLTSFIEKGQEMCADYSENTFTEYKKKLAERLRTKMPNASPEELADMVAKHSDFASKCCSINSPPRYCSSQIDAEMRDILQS

SMILES | B50 (Gallus gallus) | B50 [6] | further results
C=C1/C(=C/C=C2\CCC[C@]3(C)[C@@H]([C@H](C)CCC(F)(F)C(O)(CC)CC)CC[C@@H]23)C[C@@H](O)C[C@@H]1O | – | – | Relative potency [1]: 325; Ca2+ binding protein (Rattus norvegicus [2]): 21.7 ug (100mg of duodenum)-1; Ca2+ binding protein (Rattus norvegicus [3]): 11.9 ug (100mg of duodenum)-1; Ca2+ binding protein (Rattus norvegicus [4]): 49.5 ug (100mg of duodenum)-1; Ca2+ binding protein (Rattus norvegicus [5]): 94 ug (100mg of duodenum)-1
C=C1/C(=C/C=C2\CCC[C@]3(C)[C@@H]([C@H](C)CCCC(C)C)CC[C@@H]23)C[C@@H](O)C[C@@H]1O | 139 nM | 848 nM | –
C=C1CC[C@H](O)C/C1=C/C=C1\CCC[C@]2(C)[C@@H]([C@H](C)CCCC(C)C)CC[C@@H]12 | – | 338 nM | –
C=C1CC[C@H](O)C/C1=C/C=C1\CCC[C@]2(C)[C@@H]([C@H](C)CC[C@@H](O)C(C)(C)O)CC[C@@H]12 | 804 nM | 3.22 nM | –
C=C1CC[C@H](O)C/C1=C/C=C1\CCC[C@]2(C)[C@@H]([C@H](C)CCC[C@@](C)(O)CO)CC[C@@H]12 | 4300 nM | 4.03 nM | –
